In patent US20210198277A1, “AMINE-SUBSTITUTED ARYL OR HETEROARYL COMPOUNDS” (Epizyme, Inc., priority 2016, published 2021):

target: T1, human EHMT2 913-1193 (Homo sapiens, UniProt Q96KQ7); assay: EHMT2 enzyme assay on histone peptide substrate (EHMT2 PEP); type: biochemical; settings: Table III; read-out: EHMT2 PEP (IC50 μM)
T1 construct: recombinant purified human EHMT2 913-1193, Viva; purchased Viva
T1 sequence (Q96KQ7 913-1193): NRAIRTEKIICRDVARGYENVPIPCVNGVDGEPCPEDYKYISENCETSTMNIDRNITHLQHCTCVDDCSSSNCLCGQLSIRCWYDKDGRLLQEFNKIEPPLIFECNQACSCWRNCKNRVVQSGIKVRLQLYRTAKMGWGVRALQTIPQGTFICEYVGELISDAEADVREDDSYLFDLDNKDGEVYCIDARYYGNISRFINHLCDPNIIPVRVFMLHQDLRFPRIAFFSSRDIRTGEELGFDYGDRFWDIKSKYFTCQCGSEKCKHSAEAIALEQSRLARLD
Summary of the method: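 10-pt 3-fold series, 50 μM top final, 2% DMSO; 30 min preinc w/ 0.031 nM enzyme; pH 7.5 Bicine/TCEP buffer; ^3H-SAM + biotin-histone peptide, 60 min RT; SAM quench; streptavidin Flashplate capture, TopCount.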

IC50 [µM] | Structure (SMILES)
> 10 | CNc1ccnc(Nc2ccc(OC)c(OCCCN3CCC4(COC4)C3)c2)n1 [Compound 284]
1 to 10 | CCN(CC)CCCOc1cc(Nc2nccc(NC)n2)ccc1OC [Compound 280, N^2-(3-(3-(diethylamino)propoxy)-4-methoxyphenyl)-N^4-methylpyrimidine-2,4-diamine]
> 10 | COc1ccc(Nc2nc(C)cc(O)n2)cc1OCCCN1CCCC1 [Compound 447, 2-((4-methoxy-3-(3-(pyrrolidin-1-yl)propoxy)phenyl)amino)-6-methylpyrimidin-4-ol]
< 0.1 | CNc1ccnc(Nc2ccc(OC)c(OCCCN3CCC(OC)C3)c2)n1 (centres unmarked) [Compound 283, N^2-(4-methoxy-3-(3-(3-methoxypyrrolidin-1-yl)propoxy)phenyl)-N^4-methylpyrimidine-2,4-diamine]
0.1 to 1 | CNc1ccnc(Nc2ccc(C3CC3)c(OCCCN3CCCC3)c2)n1 [Compound 314, N^2-(4-cyclopropyl-3-(3-(pyrrolidin-1-yl)propoxy)phenyl)-N^4-methylpyrimidine-2,4-diamine]
1 to 10 | CNc1ccnc(Nc2cccc(N3CCC(N)C3)c2)n1 (centres unmarked) [Compound 297]
0.1 to 1 | CNc1ccnc(Nc2ccc(OC)c(OCCCN3CC(C)C3)c2)n1 [Compound 423, N^2-(4-methoxy-3-(3-(3-methylazetidin-1-yl)propoxy)phenyl)-N^4-methylpyrimidine-2,4-diamine]
> 10 | CNc1ccnc(Nc2ccc(OC)c(OCCCN3CCC(C#N)C3)c2)n1 (centres unmarked) [Compound 287, 1-(3-(2-methoxy-5-((4-(methylamino)pyrimidin-2-yl)amino)phenoxy)propyl)pyrrolidine-3-carbonitrile]
< 0.1 | CNc1cc(C)nc(Nc2cc(OCCCN3CCCC3)c(OC)cn2)c1 [Compound 307, N^2-(5-methoxy-4-(3-(pyrrolidin-1-yl)propoxy)pyridin-2-yl)-N^4,6-dimethylpyridine-2,4-diamine]
0.1 to 1 | CNc1cc(Nc2ccc(OC)c(OCCCN3CCCC3)c2)ncc1F [Compound 272, 5-fluoro-N^2-(4-methoxy-3-(3-(pyrrolidin-1-yl)propoxy)phenyl)-N^4-methylpyridine-2,4-diamine]
> 10 | CNc1ccnc(Nc2ccc(OC)c(OCCOC3CCCC3)c2)n1 [Compound 440, N^2-(3-(2-(cyclopentyloxy)ethoxy)-4-methoxyphenyl)-N^4-methylpyrimidine-2,4-diamine]
> 10 | CNc1ccnc(N[C@@H]2CCC[C@H](OCCCN3CCCC3)C2)n1 [Compound 427]
> 10 | CNc1cc(C)nc(Nc2cc(F)c(OC)c(OCCCN3CCCC3)c2)n1 [Compound 301, N2-(3-fluoro-4-methoxy-5-(3-(pyrrolidin-1-yl)propoxy)phenyl)-N4,6-dimethylpyrimidine-2,4-diamine]
> 10 | CCOc1ccc(Nc2nccc(NC)n2)cc1OCCCN1CCCC1 [Compound 430, N^2-(4-ethoxy-3-(3-(pyrrolidin-1-yl)propoxy)phenyl)-N^4-methylpyrimidine-2,4-diamine]
1 to 10 | CNc1ccnc(Nc2ccc(OC)c(OCCCN3CCC(C)C3)c2)n1 (centres unmarked) [Compound 293, N^2-(4-methoxy-3-(3-(3-methylpyrrolidin-1-yl)propoxy)phenyl)-N^4-methylpyrimidine-2,4-diamine]
1 to 10 | CNc1cc(C)nc(Nc2ccc(OC)c(OCC3CCN(CC4CC4)CC3)c2)n1 [Compound 436, N^2-(3-((1-(cyclopropylmethyl)piperidin-4-yl)methoxy)-4-methoxyphenyl)-N^4,6-dimethylpyrimidine-2,4-diamine]
0.1 to 1 | CNc1ccnc(Nc2ccc(OC)c(OCCCN3CC(OC)C3)c2)n1 [Compound 425, N^2-(4-methoxy-3-(3-(3-methoxyazetidin-1-yl)propoxy)phenyl)-N^4-methylpyrimidine-2,4-diamine]
< 0.1 | CNc1cc(Nc2cc(OCCCN3CCCC3)c(OC)cn2)nc(C)c1F [Compound 309, 5-fluoro-N^2-(5-methoxy-4-(3-(pyrrolidin-1-yl)propoxy)pyridin-2-yl)-N^4,6-dimethylpyridine-2,4-diamine]
1 to 10 | CNc1ccnc(Nc2cccc(N3CCC(N)C3=O)c2)n1 (centres unmarked) [Compound 274]

IC50 [µM] | Structure (SMILES)
< 0.1 | CNc1ccnc(Nc2ccc(OC)c(OC[C@H](O)CN3CCCC3)c2)n1 [Compound 299, (R)-1-(2-methoxy-5-((4-(methylamino)pyrimidin-2-yl)amino)phenoxy)-3-(pyrrolidin-1-yl)propan-2-ol]
0.1 to 1 | CNc1cc(COC)nc(Nc2ccc(OC)c(OCCCN3CCCC3)c2)n1 [Compound 441, N^2-(4-methoxy-3-(3-(pyrrolidin-1-yl)propoxy)phenyl)-6-(methoxymethyl)-N^4-methylpyrimidine-2,4-diamine]
> 10 | CNc1ccnc(Nc2ccc(OC)c(OCc3cn(C4CC4)nn3)c2)n1 [Compound 434, N^2-(3-((1-cyclopropyl-1H-1,2,3-triazol-4-yl)methoxy)-4-methoxyphenyl)-N^4-methylpyrimidine-2,4-diamine]
0.1 to 1 | CNc1cc(C)nc(Nc2ccc(OC)c(OCC3CN(CC4CC4)C3)c2)n1 [Compound 445, N^2-(3-((1-(cyclopropylmethyl)azetidin-3-yl)methoxy)-4-methoxyphenyl)-N^4,6-dimethylpyrimidine-2,4-diamine]
< 0.1 | CNc1ccnc(Nc2ccc(OC)c(OCCCN3CCC(O)C3)c2)n1 (centres unmarked) [Compound 286, 1-(3-(2-methoxy-5-((4-(methylamino)pyrimidin-2-yl)amino)phenoxy)propyl)pyrrolidin-3-ol]
1 to 10 | CNc1cc(CC(F)(F)F)nc(Nc2ccc(OC)c(OCCCN3CCCC3)c2)n1 [Compound 428, N^2-(4-methoxy-3-(3-(pyrrolidin-1-yl)propoxy)phenyl)-N^4-methyl-6-(2,2,2-trifluoroethyl)pyrimidine-2,4-diamine]
< 0.1 | CNc1ccnc(Nc2cc(OCCCN3CCCC3)c(OC)cn2)c1 [Compound 305, N^2-(5-methoxy-4-(3-(pyrrolidin-1-yl)propoxy)pyridin-2-yl)-N^4-methylpyridine-2,4-diamine]
< 0.1 | CCN1CC(COc2cc(Nc3nc(C)cc(NC)n3)ccc2OC)C1 [Compound 444]
> 10 | CNc1ccnc(Nc2cccc(OCC(F)CN3CCCC3)c2)n1 (centres unmarked) [Compound 276, N^2-(3-(2-fluoro-3-(pyrrolidin-1-yl)propoxy)phenyl)-N^4-methylpyrimidine-2,4-diamine]
> 10 | CNc1ccnc(Nc2cccc3oc(CCN(C)C)nc23)n1 [Compound 295]
0.1 to 1 | CNc1cc(Nc2cc(OCCCN3CCCC3)c(OC)cn2)cc(C)n1 [Compound 308, N^4-(5-methoxy-4-(3-(pyrrolidin-1-yl)propoxy)pyridin-2-yl)-N^2,6-dimethylpyridine-2,4-diamine]
> 10 | CNc1ccnc(Nc2cccc(N3CC(N)CC3=O)c2)n1 (centres unmarked) [Compound 296]
> 10 | CNc1ccnc(Nc2cccc(N3CCC(N(C)C)C3=O)c2)n1 (centres unmarked) [Compound 275]
> 10 | CCOc1ccc(Nc2nc(C)cc(NC)n2)cc1OCCCN1CCCC1 [Compound 432, N^2-(4-ethoxy-3-(3-(pyrrolidin-1-yl)propoxy)phenyl)-N^4,6-dimethylpyrimidine-2,4-diamine]
< 0.1 | CNc1cc(C)nc(Nc2ccc(OC)c(OCC3CN(C)C3)c2)n1 [Compound 442, N^2-(4-methoxy-3-((1-methylazetidin-3-yl)methoxy)phenyl)-N^4,6-dimethylpyrimidine-2,4-diamine]
1 to 10 | CNc1ccnc(Nc2ccc(OC)c(OCCCN3CC[C@H](F)C3)c2)n1 [Compound 271]
> 10 | COc1ccc(Nc2cc(C)nc(O)n2)cc1OCCCN1CCCC1 [Compound 448, 4-((4-methoxy-3-(3-(pyrrolidin-1-yl)propoxy)phenyl)amino)-6-methylpyrimidin-2-ol]
> 10 | CCOc1ccc(Nc2nccc(NC)n2)cc1OCC1CCN(C)C1 (centres unmarked) [Compound 431]
1 to 10 | CNc1nc(C)cc(Nc2cc(OCCCN3CCCC3)c(OC)cn2)n1 [Compound 306, N^4-(5-methoxy-4-(3-(pyrrolidin-1-yl)propoxy)pyridin-2-yl)-N^2,6-dimethylpyrimidine-2,4-diamine]
